Experimental data reported in patent publication US7524485B2, “Skin lightening agents, compositions and methods” (Unilever Home & Personal Care, USA, Division of Conopco, …, priority 2002, dated 2009).
pIC50: −log10 of the molar value.

Biological target: T1, mushroom tyrosinase
T1 construct: mushroom tyrosinase (Sigma T-7755)
Experiment: Mushroom Tyrosinase Assay
Type: biochemical
Details: Experiment 1; L-DOPA substrate, pH 7.0, absorbency 475 nm, vs ethanol control; read-out: IC50 (Concentration) Experiment 1
Method: Mushroom tyrosinase inhibition is indicative of reduction in melanin synthesis, thereby showing skin lightening effect.
Into each well of a 96-well plate, 150 microliters of phosphate buffer (100 mM, pH 7.0), 10 microliters of L-DOPA (L-3, 4-Dihydroxyphenylalanine, 10 mM), and 20 microliters of skin lightening agent (dissolved in ethanol, which is the control) were added. Following an initial measurement of background absorbency at 475-nm, 20 microliters of mushroom tyrosinase (Sigma T-7755; 6050 units/ml) was added and incubated at room temperature.
Absorbency is read at 475-nm over the following time points: 0, 2, 4, and 6.5 minutes. The data is plotted as 475-nm absorbency vs. time (minutes) and the slope of the line is calculated (ΔAbs 475 nm/min).

SMILES | pIC50
CCc1ccc(O)cc1O [4-Ethyl Resorcinol, reference compound] | 6.26
Oc1ccc(C2SCCS2)c(O)c1 [5-member Di-Thianyl Resorcinol, 4-[2′-(1′,3′-dithiacyclopenty)]-1,3-dihydroxybenzene] | 5.42
Oc1ccc(C2SCCCS2)c(O)c1 [6-member Di-Thianyl Resorcinol, 4-[2′-(1′,3′-dithiacyclohexy)]-1,3-dihydroxybenzene] | 5.77

Same assay, conditions: Experiment 2; L-DOPA substrate, pH 7.0, absorbency 475 nm, vs ethanol control; read-out: IC50 (Concentration) Experiment 2

SMILES | pIC50
CCc1ccc(O)cc1O [4-Ethyl Resorcinol, reference compound] | 6.40
Oc1ccc(C2SCCS2)c(O)c1 [5-member Di-Thianyl Resorcinol, 4-[2′-(1′,3′-dithiacyclopenty)]-1,3-dihydroxybenzene] | 5.60
Oc1ccc(C2SCCCS2)c(O)c1 [6-member Di-Thianyl Resorcinol, 4-[2′-(1′,3′-dithiacyclohexy)]-1,3-dihydroxybenzene] | 6.00
